# In patent US4041076A, “Immunoassay for pharmacologically active phenethylamines” (Hoffmann-La Roche Inc., priority 1976, dated 1977):
# How the values were obtained:
# [1] = cross-reactivity expressed as relative reactivity; Braitin and Sunshine 1973; cited from earlier work
# [2] = tested on: amphetamine antibody (pooled antisera); assay: Radioimmunoassay for amphetamine (displacement of 125I-labeled amphetamine analog from antibody); assay type: binding, goats; details: for Cross-reactivity: concentration of amphetamine equivalent in the assay to 10 μg/ml. of the test drug: pooled antisera selected for low cross-reactivity; for Relative Reactivity, Radioimmunoassay: cross-reactivity expressed as relative reactivity
# [3] = cross-reactivity expressed as relative reactivity; Braitin and Sunshine 1973; cited from earlier work; remark: listed apart in the source
Structure (SMILES),"Relative Reactivity, FRAT [1]",Cross-reactivity: concentration of amphetamine equivalent in the assay to 10 μg/ml. of the test drug ([2]; test drug at 10 μg/ml) [µg/mL],"Relative Reactivity, EMIT [3]","Relative Reactivity, Radioimmunoassay [2]","Amphetamine equivalent when tested with 10 μg/ml. of test drug, individual sera ([2]; individual sera (not the selected pool), test drug at 10 μg/ml) [µg/mL]"
CC(CCc1ccccc1)NC(C)C(O)c1ccc(O)cc1 (centres unmarked) [Nylidrin],0.1,–,–,–,–
NCCc1ccc(O)cc1 [Tyramine],–,0.17,–,–,–
"CN[C@@H](C)[C@H](O)c1ccccc1 [Ephedrine (1-form), Ephedrine]",0.15,0.003,0.2,0.0003,–
NCC(O)c1ccc(O)c(O)c1 (centres unmarked) [Norepinephrine],–,0.003,–,–,–
"COc1ccc2c(c1)C13CCCCC1C(C2)N(C)CC3 (single isomer, unassigned) [Dextromethorphan]",–,0.003,–,–,–
CC1NCCOC1c1ccccc1 (centres unmarked) [Phenmetrazine],–,0.06,–,–,–
CNC(C)(C)Cc1ccccc1 [Mephentermine],–,–,0.6,–,–
NCCc1ccc(O)c(O)c1 [Dopamine],–,0.015,–,–,–
CC(COc1ccccc1)NC(C)C(O)c1ccc(O)cc1 (centres unmarked) [Isoxsuprine],0.05,–,0.2,0,–
CC(N)C(O)c1ccccc1 (centres unmarked) [Phenylpropanolamine],–,0.17,–,–,–
CC(C)NCC(O)c1ccc(O)c(O)c1 (centres unmarked) [Isoproterenol],–,0,–,–,–
CNC(C)CC1CCCCC1 (centres unmarked) [Propylhexedrine],0.5,0.3,–,0.03,–
CC(C)(N)Cc1ccccc1 [Phentermine],1.0,0.7,–,0.07,2 to 5
CNC(C)CC1CCCC1 (centres unmarked) [Cyclopentamine],0.2,–,0.3,0.02,–
